Reference: BigSolDB 2.1

CC(C)=CCOc1c2ccoc2cc2oc(=O)ccc12
solubility (mole fraction)
Conditions	288.2 K	293.2 K	298.2 K	303.2 K	308.2 K	313.2 K	318.2 K	323.2 K	328.2 K
in ethanol	0.00263	0.00377	0.00531	0.00733	0.00999	0.0134	0.0178	0.023	0.03
in water	6.03e-07	7.42e-07	9.34e-07	1.02e-06	1.16e-06	1.29e-06	1.68e-06	2.17e-06	2.79e-06
